Consider two substances from patent US8431530B2, “Compositions and methods for treating aids or cancer by inhibiting the secretion of microparticles” (priority 2009, dated 2013).

Experiment [1] relates to NefGFP release from HEK293 cells. The experiment can be described thus: Nef-GFP co-transfection secretion assay, GFP fluorescence of supernatant. Format: cell-based. The following applies: HEK293, 0.5 μg Nef-GFP + 0.5 μg peptide, Chariot, 48 h; relative to NefGFP+sM1 (100%). The method, then: Therefore, a set of co-transfection experiments were performed. HEK293 cells were co-transfected with 0.5 μg of pQBI-HIV Nef-GFP (expresses wild type Nef protein) and either 0.5 μg of HIV-1 Nef SMRwt or SMRmut peptide or sM1 peptide (a totally random control peptide, ALAETCQNAWA (SEQ ID NO: 7)) with Chariot. Briefly, the wild-type Nef-GFP clone and the SMR peptides were complexed with Chariot reagent for 30 minutes at RT. The DNA/peptide/Chariot complex was added to HEK293 cells in serum-free media, and the cells were plated. Following incubation for 2 hours at 37° C., media with serum was added to the dish, and the cells were incubated at 37° C. for 48 h. The media was then collected and assayed for secretion using a spectrofluorimeter. The conditioned supernatants from these cultures were assayed for GFP fluorescence by plate reader.

In experiment [2] the test system is HIV-1 Nef-GFP secretion, cell line H. The experiment can be described thus: HIV-1 Nef-GFP induced secretion, fluorescent plate reader assay. The class given is cell-based. The following applies: for SMRmt/SMRwt ratio of secretion: HIV-1 Nef-GFP; for Increase in Secretion (relative to untransfected cells), exp condition/UT: HIV-1 Nef-GFP (sM1 column head prints GFP/sM1).

The next experiment deals with R7 in Jurkat cells. The experiment can be described thus: p24 ELISA of supernatant after R7 co-transfection. Format: cell-based, HIV. The method, then: Jurkat cells, HEK293 cells, THP-1 monocytes and U937 monocytes were co-transfected with either R7 […] Nef SMR wt (antagonist) or with R7+Nef SMR mt (nonfunctional antagonist) by Chariot™ Kit. The transfection efficiency was 30-40%.
R7 is a clone containing the viral genome. Transfection into cells allows expression of the viral genome and ultimately virion formation and release. The amount of virion production in the extracellular supernatant is measured through p24 protein (viral protein).
(§1) At 2 hours, 3 days, 6 days, 9 days, 13 days, 15 days, 17 days, 20 days, 23 days, 27 days and 36 days post-transfection, 0.5 ml supernatant were collected from each plate, mixed with 0.5 ml fresh media and analyzed by p24 ELISA assay. 1.5 ml of supernatant were collected from each plate and spun in a TLA100 rotor at 400,000×g for 1 hour to create the pellets. The pellets were used for Western blot analysis with p24 mAb and Nef mAb.

In experiment [3] the test system is HIV-1 Gag-GFP secretion, Jurkat. Kind of experiment: HIV-1 Gag-GFP induced secretion, fluorescent plate reader assay. The class given is cell-based. The following applies: for SMRmt/SMRwt ratio of secretion: HIV-1 Gag-GFP; for Increase in Secretion (relative to untransfected cells), exp condition/UT: HIV-1 Gag-GFP (sM1 column head prints GFP/sM1), 0.5 μg peptide, 48 hours. On the procedure:
(§2) Cells were co-transfected with 0.5 μg of pQBI-HIV Gag-GFP (expresses wild type Gag protein) and either 0.5 μg of HIV-1 Nef SMRwt, SMRmut peptide, sM1 peptide or untransfected controls with Chariot for 48 hours. The conditioned supernatants from these cultures were assayed for GFP fluorescence by plate reader.

For experiment [4], the system named is HIV-1 Gag-GFP secretion, HEK293. The description is as above. The following applies: for SMRmt/SMRwt ratio of secretion: HEK293, HIV-1 Gag-GFP; for Increase in Secretion (relative to untransfected cells), exp condition/UT: HEK293, HIV-1 Gag-GFP (sM1 column head prints GFP/sM1), 0.5 μg peptide, 48 hours. The class given is cell-based. On the procedure:
as §2

For experiment [5], the system named is HIV-1 Gag-GFP secretion, U937. Described as above. The following applies: for SMRmt/SMRwt ratio of secretion: U937, HIV-1 Gag-GFP; for Increase in Secretion (relative to untransfected cells), exp condition/UT: U937, HIV-1 Gag-GFP (sM1 column head prints GFP/sM1), 0.5 μg peptide, 48 hours. The class given is cell-based. On the procedure:
as §2

Experiment [6] relates to HIV-1 Gag-GFP secretion, THP-1. The experiment is described as above. Format: cell-based. The note with it: for SMRmt/SMRwt ratio of secretion: THP-1, HIV-1 Gag-GFP; for Increase in Secretion (relative to untransfected cells), exp condition/UT: THP-1, HIV-1 Gag-GFP (sM1 column head prints GFP/sM1), 0.5 μg peptide, 48 hours. The method, then:
as §2

Experiment [7] concerns R7 in Jurkat cells, HEK293 cells, THP-1 monocytes, U937 monocytes. Kind of experiment: Western blot of Nef and p24 in supernatant pellets. The class given is cell-based, HIV. The following applies: R7 co-transfection, HEK293, THP-1, U937, 400,000×g supernatant pellets. The method, then: as §1
No effect is observed for the negative control peptide (NefSMRmut). […] This is possibly due to antagonism of trafficking of viral component(s) to the cytoplasmic membrane. Ultimately this would (i) shutdown the HIV infection and (ii) block progression to AIDS.

For another experiment, the system named is pNL4-3 in 293 cells. The experiment can be described thus: p24 assay of virion production after pNL4-3 co-transfection. The class given is cell-based, HIV. The following applies: for p24: co-transfected with pNL4-3; for Effect (a/b): p24 of sample / p24 of pNL4-3 + sM1. On the procedure:
pNL4-3 is a clone containing the viral genome. Transfection into cells allows expression of the viral genome and ultimately virion formation and release. The amount of virion production in the extracellular supernatant is measured through p24 protein (viral protein). Samples were collected at 48 hours and 96 hours post-infection.
At 48 hr postinfection two plates in each group were removed and analyzed by: • a. p24 assay • b. Nef assay • c. Infectivity assay • At 96 hr postinfection the other two plates in each group were removed and analyzed by: • a. p24 assay • b. Nef assay • c. Infectivity assay

The test system of experiment [8] is R7; Magi/CXCR4 cells. The experiment can be described thus: Magi assay of viral infectivity, supernatants of Jurkat cells. Format: cell-based, HIV. The note with it: for blue staining (productively infected) Magi/CXCR4 cells: 48 hour conditioned supernatant of Jurkat cells transfected with R7 and peptide, X-Gal. On the procedure: (§3) Magi/CXCR4 cells were exposed to 48 hour conditioned supernatants from Jurkat cells, HEK293 cells, THP-1 monocytes, or U937 monocytes transfected with either R7 viral DNA/SMRwt peptide or R7 viral DNA/SMRmt peptide. These cells were then fixed and stained with X-Gal. […] Cells productively infected with R7 are easily visualized under light microscopy by their blue nuclear staining. Magnification ×20. […] This is indicative of virus in the conditioned supernatant from the R7/negative control peptide treated cells and no virus in conditioned supernatant from the R7/antagonist treated cells.
(§4) These Magi cultures were quantitated for blue staining cells. The data was plotted as a function of time post-transfection. […] This is possibly due to antagonism of trafficking of viral component(s) to the cytoplasmic membrane. Ultimately this would shutdown the HIV infection and block progression to AIDS.

Experiment [9] has as its system R7; Magi/CXCR4 cells. The experiment can be described thus: Magi assay of viral infectivity, supernatants of THP-1 monocytes. Format: cell-based, HIV. The following applies: supernatant from transfected THP-1 monocytes. On the procedure:
as §3, §4

“H2N-AGFPVAAAGFPVDYKDDDDK-OH (H-AGFPVAAAGFPVDYKDDDDK-OH) [SMRmt]”: the “release of NefGFP into the extracellular supernatant (GFP fluorescence)” value in experiment [1] is “no effect”. For the same substance, the “SMRmt/SMRwt ratio of secretion” value was 24.8y in experiment [2]; 1.22y in [3]; 1.08y in experiment [4]; 1y in experiment [5]; 1.08y in [6]. Further, the “Increase in Secretion (relative to untransfected cells), exp condition/UT” value came to 57.04x in experiment [2]; 58.22x in experiment [3]; 25.96x in [4]; 43.82x in experiment [5]; 45.06x in experiment [6]. Besides, in the experiment on R7 in Jurkat cells, the “time post transfection at which p24 concentration increased” value stood at 3 days. Besides, the “amount of virus production (Western blot of p24 and Nef)” value in [7] is reported as “No effect”. For the same substance, the p24 in the experiment on pNL4-3 in 293 cells (293, 48 hr) came to 30 pg/mL; in the experiment with pNL4-3 in 293 cells (293, 96 hr) it was 1125 pg/mL. For the same substance, the “Effect (a/b)” value with pNL4-3 in 293 cells (293, 48 hr) stood at 0.67; in the experiment on pNL4-3 in 293 cells (293, 96 hr) it was 1.17. In the experiment on R7; Magi/CXCR4 cells [8], the “blue staining (productively infected) Magi/CXCR4 cells” value is given as “many blue staining cells”.
In the case of H-VGFPVAAVGFPVDYKDDDDK-OH [SMRwt], the “release of NefGFP into the extracellular supernatant (GFP fluorescence)” value in experiment [1] is listed as “antagonizes the release of NefGFP into the extracellular supernatant”. The “SMRmt/SMRwt ratio of secretion” value in [2] was found to be 1.0y; in experiment [3] it was 1y; in experiment [4], 1y; in [5], 1y; in experiment [6], 1y. For the same substance, the “Increase in Secretion (relative to untransfected cells), exp condition/UT” value in [2] was found to be 2.3x; in [3], 47.46x; in experiment [4], 24.22x; in experiment [5], 43.95x; in experiment [6], 41.3x. Further, in the experiment with R7 in Jurkat cells, the “time post transfection at which p24 concentration increased” value worked out at 13 days. For the same substance, the “Gag virus-like particle release (in words, Table II)” value in experiment [3] (Gag-GFP alone, HEK293, THP-1, U937) is listed as “no effect on Gag virus-like particle release”. The “numbers of infected Magi cells as a function of time post-transfection” value with R7; Magi/CXCR4 cells [9] and in the experiment on R7; Magi/CXCR4 cells [8] (supernatant from transfected Jurkat cells) was “significantly reduced” each time. In addition, in experiment [7], the “amount of virus production (Western blot of p24 and Nef)” value is “drastically reduced to zero or close to zero”. Further, the p24 in the experiment with pNL4-3 in 293 cells (293, 48 hr) worked out at 90 pg/mL; in the experiment with pNL4-3 in 293 cells (293, 96 hr), 345 pg/mL. Further, the “Effect (a/b)” value with pNL4-3 in 293 cells (293, 48 hr) is reported as 2; with pNL4-3 in 293 cells (293, 96 hr), 0.359. Moreover, the “blue staining (productively infected) Magi/CXCR4 cells” value in the experiment on R7; Magi/CXCR4 cells [8] was “drastically reduced numbers of blue staining cells”.
